PMC10726465, “Synthesis and Evaluation of Small Molecule Inhibitors of the Androgen Receptor N-Terminal Domain” (ACS Medicinal Chemistry Letters, 2023)
Converted amounts (≈) assume the structure as drawn. Where two headings read alike, the source gives them in different places. Each block holds one compound with its values, some of them ahead of it.

Columns and labels:
[1] = test system: prostate-specific antigen (PSA) expression; experiment: Inhibition of hormone-dependent expression of PSA in VCaP cells (Western blot); assay type: cell-based; conditions: 1 nM DHT, 24 h
Description: In addition to this, we evaluated hormone-dependent expression of prostate-specific antigen (PSA) in VCaP cells (see the Supporting Information).
(§1) VCaP cells, obtained from the American Type Culture Collection, were maintained in Dulbecco’s Modified Eagles Medium (DMEM) supplemented with 10% foetal bovine serum. Cells were maintained at 37°C without antibiotics in a humidified atmosphere
(§2) Inhibition of hormone-dependent expression of prostate specific antigen (PSA):
(§3) VCaP prostate cells were treated with 1 nM DHT in the absence or presence of inhibitor. After 24 hours cells were harvested and PSA detected by Western blotting and normalised against β-actin.

[2] = In vivo pharmacokinetic profile in male CD-1 mice; conditions: mouse
Description: Encouraged by the promising in vitro profile, compound 16 was advanced, and a pharmacokinetic (PK) profile was obtained in male CD-1 mice (Table 6).

CYP 3A4 = CYP 3A4 (Homo sapiens, UniProt P08684); experiment: CYP450 inhibition (3A4); assay type: in vitro ADME
CYP 3A4, sequence (P08684 whole entry): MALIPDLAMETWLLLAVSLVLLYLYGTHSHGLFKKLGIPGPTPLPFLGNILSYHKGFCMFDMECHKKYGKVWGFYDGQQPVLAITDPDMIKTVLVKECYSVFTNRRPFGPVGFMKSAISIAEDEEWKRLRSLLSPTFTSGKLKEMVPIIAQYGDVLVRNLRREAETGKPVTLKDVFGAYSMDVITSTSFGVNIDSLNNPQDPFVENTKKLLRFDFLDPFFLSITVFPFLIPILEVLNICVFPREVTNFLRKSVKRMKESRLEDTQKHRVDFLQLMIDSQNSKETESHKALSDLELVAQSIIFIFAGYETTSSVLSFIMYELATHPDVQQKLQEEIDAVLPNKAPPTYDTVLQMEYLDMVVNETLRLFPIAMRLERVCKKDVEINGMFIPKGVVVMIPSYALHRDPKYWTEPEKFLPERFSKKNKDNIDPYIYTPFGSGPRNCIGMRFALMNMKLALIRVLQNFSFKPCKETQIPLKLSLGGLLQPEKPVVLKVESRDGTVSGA

Caco2 cell = experiment: in vitro; assay type: in vitro ADME
Description: (§4) DMPK and physicochemical data were generated by Cyprotex Ltd, Alderley Park, Macclesfield, UK and Pharmaron Inc, Ningbo, China.

in vitro = in vitro ADME; conditions: human, Caco-2
Description: as §4

[3] = Thermodynamic aqueous solubility; assay type: physicochemical
[4] = Human liver microsome stability; assay type: in vitro ADME; conditions: human liver microsomes
Description: PSA expression (%inhibition) 34%
Plots of activity against
values for each small molecule determined.
Macclesfield, UK and Pharmaron Inc, Ningbo, China.

Plasma protein binding = assay type: in vitro ADME; conditions: mouse
CYP 2D6 = CYP 2D6 (Homo sapiens, UniProt P10635); experiment: CYP450 inhibition (2D6); assay type: in vitro ADME
CYP 2D6, sequence (P10635 whole entry): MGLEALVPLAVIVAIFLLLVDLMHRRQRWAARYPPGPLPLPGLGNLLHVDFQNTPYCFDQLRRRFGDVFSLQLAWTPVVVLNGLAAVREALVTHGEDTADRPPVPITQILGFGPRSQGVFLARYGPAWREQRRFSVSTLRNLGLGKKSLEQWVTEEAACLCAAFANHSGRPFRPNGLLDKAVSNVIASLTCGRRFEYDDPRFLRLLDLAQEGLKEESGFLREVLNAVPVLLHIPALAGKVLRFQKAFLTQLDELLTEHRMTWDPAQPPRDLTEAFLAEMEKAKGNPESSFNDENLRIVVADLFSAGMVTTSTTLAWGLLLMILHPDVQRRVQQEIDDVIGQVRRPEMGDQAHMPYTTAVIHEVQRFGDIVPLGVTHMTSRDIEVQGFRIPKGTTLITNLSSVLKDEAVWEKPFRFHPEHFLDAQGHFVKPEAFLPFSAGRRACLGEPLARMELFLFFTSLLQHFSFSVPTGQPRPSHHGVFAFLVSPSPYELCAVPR

androgen receptor (AR) = biological target: T1, androgen receptor (AR) (Homo sapiens, UniProt P10275); conditions: for Lipophilic Ligand Efficiency (LLE): from VCaP GRE2-luciferase IC50 and cLogP; for Ligand Efficiency (LE): from VCaP GRE2-luciferase IC50
T1 sequence (P10275 1-920): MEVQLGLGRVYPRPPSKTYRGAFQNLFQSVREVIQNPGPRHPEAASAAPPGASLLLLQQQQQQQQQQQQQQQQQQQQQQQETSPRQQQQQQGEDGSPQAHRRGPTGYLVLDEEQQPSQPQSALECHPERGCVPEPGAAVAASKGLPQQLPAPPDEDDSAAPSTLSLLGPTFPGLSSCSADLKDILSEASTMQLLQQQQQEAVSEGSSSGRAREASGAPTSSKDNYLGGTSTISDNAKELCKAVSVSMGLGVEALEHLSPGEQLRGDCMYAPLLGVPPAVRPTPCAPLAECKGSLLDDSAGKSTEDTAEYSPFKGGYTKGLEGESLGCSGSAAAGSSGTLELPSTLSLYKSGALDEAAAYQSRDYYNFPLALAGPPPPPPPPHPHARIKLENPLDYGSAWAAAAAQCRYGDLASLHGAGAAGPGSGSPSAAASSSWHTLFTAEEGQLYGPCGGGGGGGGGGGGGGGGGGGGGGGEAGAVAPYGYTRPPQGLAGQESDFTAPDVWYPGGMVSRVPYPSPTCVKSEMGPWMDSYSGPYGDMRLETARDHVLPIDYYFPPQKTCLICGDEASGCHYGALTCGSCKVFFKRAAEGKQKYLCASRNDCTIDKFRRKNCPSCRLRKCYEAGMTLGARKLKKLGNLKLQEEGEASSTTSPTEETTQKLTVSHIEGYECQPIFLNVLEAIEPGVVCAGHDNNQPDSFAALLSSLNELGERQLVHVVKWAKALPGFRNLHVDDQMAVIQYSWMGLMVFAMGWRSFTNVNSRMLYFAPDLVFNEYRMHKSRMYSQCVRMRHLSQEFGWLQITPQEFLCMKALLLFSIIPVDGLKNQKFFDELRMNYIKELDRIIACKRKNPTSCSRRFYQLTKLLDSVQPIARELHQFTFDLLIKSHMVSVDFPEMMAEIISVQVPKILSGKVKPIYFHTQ
Description: as §1
Transient transfection and Luciferase Activity Assay:
Cells at 70–80% confluence in 24 well plates, were transferred to DMEM
300ng/well of the firefly reporter plasmid, GRE2-TATA-luc using JetPEI (PolyPLUS Transfection) according to the manufacturers’ protocol.
replaced with fresh DMEM +5% CSS containing either DMSO (vehicle control) or 0– 30 µM small molecules together with 1nM DHT. Twenty four hours later, medium was aspirated, cells were washed with PBS and extracted with Passive Lysis Buffer
Cell debris was removed by centrifugation at 13,000 xg for 5min and supernatants collected. Luciferase activity was measured in triplicate, using an in-house luciferase assay buffer (13 mM MgSO4 7H2O, 30 mM
amount of total cellular protein.
as §2, §3
Luciferase activity in cells treated with small molecules was determined as a percentage of the untreated control, which was set at 100%. Plots of activity against small molecule concentration (log) were analysed in GraphPad PRISM 5 and IC50 values for each small molecule determined.

AR-v (ARNTD–DBD) = biological target: T2, AR-v (ARNTD–DBD) (Homo sapiens, UniProt P10275); experiment: AR-v splice variant activity in PC3 cells transfected with ARNTD–DBD expression plasmid and GRE2-luciferase reporter; conditions: PC-3, read-out: inhibition of AR-v activity
T2 sequence (P10275 1-632 limits assumed): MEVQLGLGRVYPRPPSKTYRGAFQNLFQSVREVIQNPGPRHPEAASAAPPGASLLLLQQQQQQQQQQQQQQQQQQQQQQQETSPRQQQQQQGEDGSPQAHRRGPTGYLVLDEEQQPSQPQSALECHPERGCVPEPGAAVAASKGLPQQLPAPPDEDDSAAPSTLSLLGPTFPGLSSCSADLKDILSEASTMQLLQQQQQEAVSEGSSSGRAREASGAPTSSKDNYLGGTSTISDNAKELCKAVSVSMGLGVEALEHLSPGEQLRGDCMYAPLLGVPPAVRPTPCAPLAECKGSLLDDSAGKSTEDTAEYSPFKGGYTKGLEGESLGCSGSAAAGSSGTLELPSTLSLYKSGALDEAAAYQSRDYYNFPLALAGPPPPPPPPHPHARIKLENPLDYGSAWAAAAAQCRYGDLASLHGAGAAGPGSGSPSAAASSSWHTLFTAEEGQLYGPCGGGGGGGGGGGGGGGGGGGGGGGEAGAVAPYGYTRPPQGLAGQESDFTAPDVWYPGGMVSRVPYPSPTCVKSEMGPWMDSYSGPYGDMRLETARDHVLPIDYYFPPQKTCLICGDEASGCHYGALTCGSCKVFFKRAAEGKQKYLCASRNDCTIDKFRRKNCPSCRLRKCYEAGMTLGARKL
Description: To this end, AR-v splice variant activity was determined through transfection of PC3 cells with an ARNTD–DBD expression plasmid and a GRE2-luciferase reporter gene (Figure 3).[43]

hERG channel = hERG channel (Homo sapiens, UniProt Q12809); experiment: hERG channel inhibition, Q-patch clamp assay
hERG channel, sequence (Q12809 whole entry): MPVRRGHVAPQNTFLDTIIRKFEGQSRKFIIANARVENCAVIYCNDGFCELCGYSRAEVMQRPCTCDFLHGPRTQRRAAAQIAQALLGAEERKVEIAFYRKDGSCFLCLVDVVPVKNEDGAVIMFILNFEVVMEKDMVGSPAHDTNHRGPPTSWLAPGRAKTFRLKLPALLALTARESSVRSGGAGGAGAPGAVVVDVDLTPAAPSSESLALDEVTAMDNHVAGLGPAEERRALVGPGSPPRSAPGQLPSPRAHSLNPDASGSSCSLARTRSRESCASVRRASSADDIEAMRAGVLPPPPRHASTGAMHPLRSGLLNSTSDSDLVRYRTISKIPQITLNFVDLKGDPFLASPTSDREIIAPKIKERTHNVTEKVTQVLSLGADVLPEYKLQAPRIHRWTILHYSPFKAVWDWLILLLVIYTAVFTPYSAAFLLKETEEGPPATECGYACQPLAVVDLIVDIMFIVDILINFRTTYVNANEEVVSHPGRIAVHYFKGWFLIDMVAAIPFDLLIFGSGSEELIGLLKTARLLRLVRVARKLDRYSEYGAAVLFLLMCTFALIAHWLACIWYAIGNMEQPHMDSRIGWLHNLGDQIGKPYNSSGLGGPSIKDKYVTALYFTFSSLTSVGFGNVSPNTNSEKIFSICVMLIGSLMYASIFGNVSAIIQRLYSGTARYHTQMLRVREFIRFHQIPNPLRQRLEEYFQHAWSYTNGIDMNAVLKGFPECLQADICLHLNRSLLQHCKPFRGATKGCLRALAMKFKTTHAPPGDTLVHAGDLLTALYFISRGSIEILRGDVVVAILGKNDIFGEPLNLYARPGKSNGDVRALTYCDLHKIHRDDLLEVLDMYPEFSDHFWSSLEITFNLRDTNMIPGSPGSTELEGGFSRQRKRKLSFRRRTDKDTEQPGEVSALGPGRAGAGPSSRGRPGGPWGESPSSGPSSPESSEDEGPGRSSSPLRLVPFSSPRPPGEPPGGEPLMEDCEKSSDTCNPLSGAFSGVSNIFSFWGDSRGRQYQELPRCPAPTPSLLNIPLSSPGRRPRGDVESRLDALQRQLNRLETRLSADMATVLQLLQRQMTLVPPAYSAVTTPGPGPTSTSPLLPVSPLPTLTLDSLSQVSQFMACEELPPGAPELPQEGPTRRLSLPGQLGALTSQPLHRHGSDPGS

[5] = read-out: VCaP GRE2-luciferase IC50, VCaP cells, 1 nM DHT, 24 h, 0–30 µM compound

SMILES: CSc1ccc(C(N)=O)cc1-c1ccc2c(cnn2C)c1 [Compound 16]
- PSA expression (% inhibition) ([1]; 10 μM): 34%
- AUC0–t ([2]; iv 1 mg/kg): 131 ng·h/mL
- AUC0–∞ ([2]; iv 1 mg/kg): 132 ng·h/mL
- CL ([2]; iv 1 mg/kg): 126 mL min^–1 kg^–1
- Cmax ([2]; iv 1 mg/kg): 432 ng/mL
- Vss_obs ([2]; iv 1 mg/kg): 1.38 L/kg
- t1/2 ([2]; iv 1 mg/kg): 17.4 min
- AUC0–t ([2]; po 10 mg/kg): 173 ng·h/mL
- AUC0–∞ ([2]; po 10 mg/kg): 208 ng·h/mL
- Cmax ([2]; po 10 mg/kg): 195 ng/mL
- F (oral bioavailability) ([2]; po 10 mg/kg): 16%
- Tmax ([2]; po 10 mg/kg): 0.25
- t1/2 ([2]; po 10 mg/kg): 240 min
- CYP450 inhibition, 3A4 isoform (in words) (CYP 3A4): no inhibition
- IC50 (CYP 3A4): > 25 µM
- Caco2 permeability Papp A2B (Caco2 cell; apical to basolateral): 3.31 ×10⁻⁶ cm/s
- Caco2 permeability Papp B2A (Caco2 cell; basolateral to apical): 3.94 ×10⁻⁶ cm/s
- Papp A→B (in vitro; apical to basolateral, read-out: Caco2 permeability Papp A2B): 33.1 ×10⁻⁶ cm/s
- Papp B→A (in vitro; basolateral to apical, read-out: Caco2 permeability Papp B2A): 39.4 ×10⁻⁶ cm/s
- efflux ratio (in vitro; read-out: Caco2 efflux ratio): 1.2
- solubility [3]: 2.6 µM (≈ 0.773 µg/mL)
- microsomal CLint ([4]; read-out: HLM CLint): 25.6 µL/min/mg
- half-life ([4]; read-out: HLM t1/2): 54 min
- fraction unbound (Plasma protein binding): 0.069
- CYP450 inhibition, 2D6 isoform (in words) (CYP 2D6): no inhibition
- IC50 (CYP 2D6): > 25 µM
- increase in potency over initial hit compound 7 (androgen receptor (AR); VCaP GRE2-luciferase IC50 ratio): 60 fold
- Lipophilic Ligand Efficiency (LLE) (androgen receptor (AR)): 4.7
- IC50 (androgen receptor (AR); [5]): 0.12 µM
- inhibition at 10 µM (AR-v (ARNTD–DBD)): 35%
- hERG channel inhibition (in words) (hERG channel; Q-patch clamp assay): no hERG channel inhibition
- IC50 (hERG channel; read-out: hERG IC50): > 10 µM

SMILES: CC(C)(c1ccc(OCC(O)CO)cc1)c1ccc(OCC(O)CCl)cc1 (stereo not drawn) [EPI-001, reference compound]
- PSA expression (% inhibition) ([1]; 50 μM): 19%

- IC50 (androgen receptor (AR)): 0.9 µM
- Ligand Efficiency (LE) (androgen receptor (AR)): 0.59
- Lipophilic Ligand Efficiency (LLE) (androgen receptor (AR)): 6.0
SMILES: CSc1ccc(C(N)=O)cc1-c1ccc2cnccc2c1 [Compound 21]

- activity in VCaP GRE2-luciferase assay (in words) (androgen receptor (AR); VCaP cells, 1 nM DHT): inactive
- Ligand Efficiency (LE) (androgen receptor (AR)): 0.43
- Lipophilic Ligand Efficiency (LLE) (androgen receptor (AR)): 4.7
- IC50 (androgen receptor (AR); [5]): > 30 µM
SMILES: CC(C)COc1ccc(C(N)=O)cc1-c1ccc2c(cnn2C)c1 [Compound 51]

- Ligand Efficiency (LE) (androgen receptor (AR)): 0.43
- Lipophilic Ligand Efficiency (LLE) (androgen receptor (AR)): 4.6
- IC50 (androgen receptor (AR); [5]): > 30 µM
SMILES: Cn1ncc2cc(-c3cc(C(N)=O)ccc3OC(F)(F)F)ccc21 [Compound 48]

- activity in VCaP GRE2-luciferase assay (in words) (androgen receptor (AR); VCaP cells, 1 nM DHT): loss of activity
- Ligand Efficiency (LE) (androgen receptor (AR)): 0.52
- Lipophilic Ligand Efficiency (LLE) (androgen receptor (AR)): 5.4
- IC50 (androgen receptor (AR); [5]): > 30 µM
SMILES: COc1cc(-c2cc(C(N)=O)ccc2SC)ccc1N [Compound 30]

- Ligand Efficiency (LE) (androgen receptor (AR)): 0.48
- Lipophilic Ligand Efficiency (LLE) (androgen receptor (AR)): 5.4
- IC50 (androgen receptor (AR); [5]): 8.6 µM
SMILES: Cn1ncc2cc(-c3cc(C(N)=O)ccc3C(F)(F)F)ccc21 [Compound 45]

- Ligand Efficiency (LE) (androgen receptor (AR)): 0.38
- Lipophilic Ligand Efficiency (LLE) (androgen receptor (AR)): 4.4
- IC50 (androgen receptor (AR); [5]): > 30 µM
SMILES: Cn1ncc2cc(-c3cc(C(N)=O)ccc3OCc3ccccc3)ccc21 [Compound 47]

- activity in VCaP GRE2-luciferase assay (in words) (androgen receptor (AR); VCaP cells, 1 nM DHT): inactive
- Ligand Efficiency (LE) (androgen receptor (AR)): 0.54
- Lipophilic Ligand Efficiency (LLE) (androgen receptor (AR)): 4.9
- IC50 (androgen receptor (AR); [5]): > 30 µM
SMILES: CSc1ccc(C(N)=O)cc1-c1cc(O)cc(F)c1 [Compound 32]

- Ligand Efficiency (LE) (androgen receptor (AR)): 0.41
- Lipophilic Ligand Efficiency (LLE) (androgen receptor (AR)): 6.4
- IC50 (androgen receptor (AR); [5]): > 30 µM
SMILES: CN(C)CCNc1ccc(C(N)=O)cc1-c1ccc2c(cnn2C)c1 [Compound 57]
